# Results from patent US20240409534A1, “CRYSTAL FORM OF METHYLPYRAZOLE-SUBSTITUTED PYRIDOIMIDAZOLE COMPOUND AND PREPARATION METHOD THEREFOR” (priority 2021, published 2024).
# Key:
# [1] = Stability test (high temperature, high humidity, light, accelerated, long-term); format: physicochemical
# From the text: For tests under high temperature, high humidity and light conditions, samples were put into an open clean weighing bottle, spread into a thin layer of 5 mm or less, and 3 samples (1.1 g/sample) were weighed in parallel at each condition time point. The prepared samples were placed under each condition, and sampled for analysis at each time point.
# For accelerated stability and long-term stability tests, samples were packed into a double-layer pharmaceutical low-density polyethylene bag. Each layer of the pharmaceutical low-density polyethylene bag was sealed with buckles, and then the double-layer low-density polyethylene bag was heat-sealed in an aluminum foil bag. 6 samples (1.1 g/sample) were weighed in parallel at each condition time point. The prepared samples were placed under each condition, and sampled for analysis at each time point.
# [2] = test system: NCI-H1581 cells with high expression of FGFR1; test: Cell proliferation inhibition, CellTiter-Glo, NCI-H1581; format: cell-based; conditions: Homo sapiens, 72 h, NCI-H1581, cultured for 3 days
# From the text: The compounds of the present disclosure can target and inhibit FGFR and VEGFR pathways, and inhibit tumor cell growth by inhibiting VEGF/VEGFR and FGF/FGFR signaling pathways. In this experiment, human non-small cell lung cancer cells NCI-H1581 with high expression of FGFR1, gastric cancer cells SNU-16 with high expression of FGFR2, and human bladder cancer cells RT112/84 with high expression of FGFR3 were selected. In this experiment, the inhibitory effect of compounds on cell proliferation was investigated by detecting the effect of the compounds of the present disclosure on the cell viability in vitro in the tumor cell lines NCI-H1581, SNU-16 and RT-112/84.
# Regular passage, and cells in logarithmic growth phase were taken for plating.
# • (1) Cells were stained with trypan blue and viable cells were counted. • (2) The cell concentration was adjusted to an appropriate concentration.
# • (3) 90 μL of cell suspension per well was added to a culture plate, and cell-free culture solution was added to the blank control well. • (4) The plate was cultured overnight in a 37° C., 5% CO2 incubator with 100% relative humidity.
# • (1) Preparation of 10× compound working solution: 78 μL of cell culture medium was added to a V-bottom 96-well plate, and 2 μL of compound was pipetted from a 400× compound storage plate and added to the cell culture medium of the 96-well plate. […]
# [3] = Accelerated stability test (40° C./relative humidity: 75%), Day 0
# [4] = Accelerated stability test (40° C./relative humidity: 75%), Month 1
# [5] = Accelerated stability test (40° C./relative humidity: 75%), Month 2
# [6] = Accelerated stability test (40° C./relative humidity: 75%), Month 3
# [7] = Accelerated stability test (40° C./relative humidity: 75%), Month 6
# [8] = High humidity (25° C./relative humidity: 92.5%, open), Day 5
# [9] = High humidity (25° C./relative humidity: 92.5%, open), Day 10
# [10] = High humidity (25° C./relative humidity: 92.5%, open), Day 30
# [11] = High temperature (60° C., open), Day 5
# [12] = High temperature (60° C., open), Day 10
# [13] = High temperature (60° C., open), Day 30
# [14] = Light (Total illumination: 1.2 × 10^6 Lux · hr/NUV: 200 w · hr/m^2, open), Day 5
# [15] = Light (Total illumination: 1.2 × 10^6 Lux · hr/NUV: 200 w · hr/m^2, open), Day 10
# [16] = Long-term stability test (25° C./relative humidity: 60%), Day 0
# [17] = Long-term stability test (25° C./relative humidity: 60%), Month 3
# [18] = Long-term stability test (25° C./relative humidity: 60%), Month 6
# [19] = Long-term stability test (25° C./relative humidity: 60%), Month 9
compound,measurement,setting,value
CS(=O)(=O)O.Cn1cc(-c2ccn3c(-c4cc(NS(C)(=O)=O)nc(-c5ccc(F)cc5F)c4)cnc3c2)cn1,Content,[1]; [3],97.9%
same,Crystal form (XRPD),[1]; [3],Crystal form A
same,Total impurities,[1]; [3],1.2%
same,Content,[1]; [4],98.0%
same,Crystal form (XRPD),[1]; [4],Crystal form A
same,Total impurities,[1]; [4],1.3%
same,Content,[1]; [5],97.6%
same,Crystal form (XRPD),[1]; [5],Crystal form A
same,Total impurities,[1]; [5],1.2%
same,Content,[1]; [6],98.0%
same,Crystal form (XRPD),[1]; [6],Crystal form A
same,Total impurities,[1]; [6],1.2%
same,Content,[1]; [7],98.5%
same,Crystal form (XRPD),[1]; [7],Crystal form A
same,Total impurities,[1]; [7],1.2%
same,Content,[1]; Day 0,97.9%
same,Crystal form (XRPD),[1]; Day 0,Crystal form A
same,Total impurities,[1]; Day 0,1.2%
same,Content,[1]; [8],96.8%
same,Crystal form (XRPD),[1]; [8],Crystal form A
same,Total impurities,[1]; [8],1.2%
same,Content,[1]; [9],98.8%
same,Crystal form (XRPD),[1]; [9],Crystal form A
same,Total impurities,[1]; [9],1.2%
same,Content,[1]; [10],98.0%
same,Crystal form (XRPD),[1]; [10],Crystal form A
same,Total impurities,[1]; [10],1.3%
same,Content,[1]; [11],97.0%
same,Crystal form (XRPD),[1]; [11],Crystal form A
same,Total impurities,[1]; [11],1.3%
same,Content,[1]; [12],98.5%
same,Crystal form (XRPD),[1]; [12],Crystal form A
same,Total impurities,[1]; [12],1.1%
same,Content,[1]; [13],98.2%
same,Crystal form (XRPD),[1]; [13],Crystal form A
same,Total impurities,[1]; [13],1.2%
same,Content,[1]; [14],98.4%
same,Crystal form (XRPD),[1]; [14],Crystal form A
same,Total impurities,[1]; [14],1.2%
same,Content,[1]; [15],97.7%
same,Crystal form (XRPD),[1]; [15],Crystal form A
same,Total impurities,[1]; [15],1.1%
same,Content,[1]; [16],97.9%
same,Crystal form (XRPD),[1]; [16],Crystal form A
same,Total impurities,[1]; [16],1.2%
same,Content,[1]; [17],98.3%
same,Crystal form (XRPD),[1]; [17],Crystal form A
same,Total impurities,[1]; [17],1.2%
same,Content,[1]; [18],98.6%
same,Crystal form (XRPD),[1]; [18],Crystal form A
same,Total impurities,[1]; [18],1.2%
same,Content,[1]; [19],97.6%
same,Crystal form (XRPD),[1]; [19],Crystal form A
same,Total impurities,[1]; [19],1.2%
same,IC50,[2],117 nM
